According to ChEMBL document CHEMBL4304776, “Indicaxanthin, a multi-target natural compound from Opuntia ficus-indica fruit: From its poly-pharmacological effects to biochemical mechanisms and molecular modelling studies” (Eur J Med Chem, 2019):

What was measured:
B16-F10 [1] = assay: Antitumor activity against […] cells xenografted in C57BL/6 mouse assessed as reduction in CXCL1 level at 3.2 mg/kg, po measured after 14 days post transfection relative to control; type: functional; settings: 336 h
[2] = Drug concentration in rat brain cerebellum at […], po after 1 hr; type: ADME, organism-based; settings: read-out: Ct
HUVEC = assay: Antiinflammatory activity in HUVEC assessed as reduction in TNF-alpha induced ICAM1 protein expression at 5 uM incubated for 5 hrs followed by TNFalpha-induction and measured after 16 hrs by flow cytometric analysis relative to control; type: functional; settings: Homo sapiens
[3] = Drug concentration in rat brain cortex at […], po after 1 hr; type: ADME, organism-based; settings: read-out: Ct
Homo sapiens = species on record: Homo sapiens; assay: Binding affinity to human LDL assessed per mg of protein
B16-F10 [4] = assay: Antitumor activity against […] cells xenografted in C57BL/6 mouse assessed as reduction in tumor volume at 3.2 mg/kg, po measured after 14 days post transfection relative to control; type: functional; settings: 336 h
Caco-2 = assay: Antiproliferative activity against human Caco2 cells assessed as reduction in cell viability after 48 hrs by MTT assay; type: functional, cell-based; settings: Caco-2, 48 h
B16-F10 [5] = assay: Antitumor activity against […] cells xenografted in C57BL/6 mouse assessed as reduction in tumor weight at 3.2 mg/kg, po measured after 14 days post transfection relative to control; type: functional; settings: 336 h
[6] = Drug concentration in rat brain at 2 umol/kg, po after 2.5 hrs; type: ADME, organism-based; settings: read-out: Ct
[7] = Plasma concentration in rat at 2 uM/kg, po after 2.5 hrs; type: ADME, organism-based; settings: in vivo

`O=C(O)C1=C/C(=C/C=[N+]2/CCC[C@H]2C(=O)[O-])C[C@@H](C(=O)O)N1` gave an inhibition in vivo at 3.2 mg/kg (B16-F10 [1]) of 42%, a concentration at 1 h [2] of 90 ng/g and an inhibition at 5 µM (HUVEC) of -15%. It also gave a concentration at 1 h [3] of 50 ng/g, a Bmax (Homo sapiens) of 0.52 nmol and an inhibition in vivo at 3.2 mg/kg (B16-F10 [4]) of 86%. For the same molecule, the IC50 (Caco-2) was 115 µM, the inhibition in vivo at 3.2 mg/kg (B16-F10 [5]) was 83% and the concentration at 2.5 h [6] was 20 ng/g. It also gave a Cp [7] of 200 nM.
